Data published in patent US5268462A, “Oleandomycin oximes” (Pliva Farmaceutska, priority 1990, dated 1993).
≈ marks a conversion by molar mass, not a printed value.

Experiments:
Assay type in all cases: cell-based
[1] = test system: Strept. pneumoniae 4050; assay: Antibacterial in vitro activity (MIC), clinical isolate; conditions: Streptococcus pneumoniae; Strept. pneumoniae 4050, clinical isolate; read-out: Minimal Inhibitory Concentration (MIC)
Source text: (§1) The antibacterial in vitro activity was evidenced on a series of standard and clinically isolated strains. The results are expressed as Minimal Inhibitory Concentration (MIC; μg/mL) and represented hereinbelow in Tables 1 and 2.

[2] = test system: H. Influenze 4028; assay: as above; conditions: H. Influenze 4028, clinical isolate; read-out: Minimal Inhibitory Concentration (MIC)
Source text: as §1

[3] = test system: Staph. aureus 10097; assay: as above; conditions: Staphylococcus aureus; Staph. aureus 10097, clinical isolate; read-out: Minimal Inhibitory Concentration (MIC)
Source text: as §1

[4] = test system: Strept. faecalis 10390; assay: as above; conditions: Enterococcus faecalis; Strept. faecalis 10390, clinical isolate; read-out: Minimal Inhibitory Concentration (MIC)
Source text: as §1

[5] = test system: Staph. saprophyt. 3947; assay: as above; conditions: Staph. saprophyt. 3947, clinical isolate; read-out: Minimal Inhibitory Concentration (MIC)
Source text: as §1

[6] = test system: Staph. aureus 10099; assay: as above; conditions: Staphylococcus aureus; Staph. aureus 10099, clinical isolate; read-out: Minimal Inhibitory Concentration (MIC)
Source text: as §1

[7] = test system: Sarcina lutea ATCC 9341; assay: Activity on Sarcina lutea ATCC 9341
[8] = test system: Klebsiella pneum. NCTC-10499; assay: Antibacterial in vitro activity (MIC), standard strain; conditions: NCTC10499; Klebsiella pneum. NCTC-10499, standard strain; read-out: Minimal Inhibitory Concentration (MIC)
Source text: as §1

[9] = test system: E. coli ATCC 10536; assay: as above; conditions: Escherichia coli, ATCC10536; E. coli ATCC 10536, standard strain; read-out: Minimal Inhibitory Concentration (MIC)
Source text: as §1

[10] = test system: Strept. faecalis ATCC-8043; assay: as above; conditions: Enterococcus faecalis, ATCC8043; Strept. faecalis ATCC-8043, standard strain; read-out: Minimal Inhibitory Concentration (MIC)
Source text: as §1

[11] = test system: Staph. aureus ATCC 6538-P; assay: as above; conditions: Staphylococcus aureus, ATCC6538, read-out: Minimal Inhibitory Concentration (MIC)
Source text: as §1

[12] = test system: Pseud. aerug. NCTC-10490; assay: as above; conditions: Pseud. aerug. NCTC-10490, standard strain; read-out: Minimal Inhibitory Concentration (MIC)
Source text: as §1

[13] = test system: Sarcina lutea ATCC-9341; assay: as above; conditions: Micrococcus luteus, ATCC9341; Sarcina lutea ATCC-9341, standard strain; read-out: Minimal Inhibitory Concentration (MIC)
Source text: as §1

[14] = test system: Strept. serol. group A; assay: MIC (clinical isolates), Examples 1-3
Source text: as §1

[15] = test system: Strept. pneumoniae; assay: MIC (clinical isolates), Examples 1-3; conditions: Streptococcus pneumoniae
Source text: as §1

Structure (SMILES) | MIC [1] [µg/mL] | MIC [2] [µg/mL] | MIC [3] [µg/mL] | MIC [4] [µg/mL] | MIC [5] [µg/mL] | MIC [6] [µg/mL] | Activity [7] [u/mg] | MIC [8] [µg/mL] | MIC [9] [µg/mL] | MIC [10] [µg/mL] | MIC [11] [µg/mL] | MIC [12] [µg/mL] | MIC [13] [µg/mL] | MIC [14] [µg/mL] | MIC [15] [µg/mL]
COC1CC(OC2C(C)C(=O)OC(C)C(C)C(O)C(C)C(=NO)C(C)CC(C)C(OC3OC(C)CC(N(C)C)C3O)C2C)OC(C)C1O (single isomer, unassigned) [Ie, 8-methyl-oleandomycin oxime] | 0.4 (≈ 0.581 µM) | 0.4 (≈ 0.581 µM) | 0.4 (≈ 0.581 µM) | 0.8 (≈ 1.16 µM) | 1.6 (≈ 2.32 µM) | 0.4 (≈ 0.581 µM) | 657 | 50 (≈ 72.6 µM) | 6.2 (≈ 9 µM) | 0.2 (≈ 0.29 µM) | 0.2 (≈ 0.29 µM) | 50 (≈ 72.6 µM) | 0.2 (≈ 0.29 µM) | – | –
COC1CC(OC2C(C)C(=O)OC(C)C(C)C(O)C(C)C(=NO)C3(CO3)CC(C)C(OC3OC(C)CC(N(C)C)C3O)C2C)OC(C)C1O (stereo not drawn) [Ia, OLEANDOMYCIN OXIME] | – | – | – | – | – | – | – | – | – | – | – | – | – | 0.5 (≈ 0.711 µM) | 0.5 (≈ 0.711 µM)
COC1CC(OC2C(C)C(=O)OC(C)C(C)C=C(C)C(=NO)C3(CO3)CC(C)C(OC3OC(C)CC(N(C)C)C3O)C2C)OC(C)C1O (stereo not drawn) [Ib, ANHYDRO OLEANDOMYCIN OXIME] | – | – | – | – | – | – | – | – | – | – | – | – | – | 1 (≈ 1.46 µM) | 2 (≈ 2.92 µM)
C=C1CC(C)C(OC2OC(C)CC(N(C)C)C2O)C(C)C(OC2CC(OC)C(O)C(C)O2)C(C)C(=O)OC(C)C(C)C(O)C(C)C1=NO (stereo not drawn) [Ic, 8-METHYLENE-OLEANDOMYCIN OXIME] | – | – | – | – | – | – | – | – | – | – | – | – | – | 1 (≈ 1.46 µM) | 1 (≈ 1.46 µM)
CO[C@H]1C[C@H](O[C@H]2[C@H](C)[C@@H](O[C@@H]3O[C@H](C)C[C@H](N(C)C)[C@H]3O)[C@@H](C)C[C@@]3(CO3)C(=O)[C@H](C)[C@@H](O)[C@@H](C)[C@@H](C)OC(=O)[C@@H]2C)O[C@@H](C)[C@@H]1O [oleandomycin phosphate, reference compound] | 1.6 | – | 0.8 | 3.1 | 1.6 | 0.8 | – | > 50 | 25 | 0.8 | 0.4 | > 50 | 0.2 | – | –
